Test results as given in ChEMBL document CHEMBL1121470, “Synthesis and antiinflammatory activity of some 2-(substituted-pyridinyl)benzimidazoles” (J Med Chem, 1980).

Experiments:
Rattus norvegicus [1] = test: Antiinflammatory activity by carrageenan-induced rat paw edema assay after 3 hr at 100 mg/kg concentration administered perorally.; assay type: functional; details: route oral
Mus musculus [2] = test: Compound was tested for acute toxicity when administered perorally; assay type: functional; details: po
Cyclooxygenase = target: T1, Cyclooxygenase (Rattus norvegicus, UniProt P35355+Q63921); test: Compound was tested for inhibition of prostaglandin synthetase […]; assay type: protein assay
T1 sequence (P35355 whole entry): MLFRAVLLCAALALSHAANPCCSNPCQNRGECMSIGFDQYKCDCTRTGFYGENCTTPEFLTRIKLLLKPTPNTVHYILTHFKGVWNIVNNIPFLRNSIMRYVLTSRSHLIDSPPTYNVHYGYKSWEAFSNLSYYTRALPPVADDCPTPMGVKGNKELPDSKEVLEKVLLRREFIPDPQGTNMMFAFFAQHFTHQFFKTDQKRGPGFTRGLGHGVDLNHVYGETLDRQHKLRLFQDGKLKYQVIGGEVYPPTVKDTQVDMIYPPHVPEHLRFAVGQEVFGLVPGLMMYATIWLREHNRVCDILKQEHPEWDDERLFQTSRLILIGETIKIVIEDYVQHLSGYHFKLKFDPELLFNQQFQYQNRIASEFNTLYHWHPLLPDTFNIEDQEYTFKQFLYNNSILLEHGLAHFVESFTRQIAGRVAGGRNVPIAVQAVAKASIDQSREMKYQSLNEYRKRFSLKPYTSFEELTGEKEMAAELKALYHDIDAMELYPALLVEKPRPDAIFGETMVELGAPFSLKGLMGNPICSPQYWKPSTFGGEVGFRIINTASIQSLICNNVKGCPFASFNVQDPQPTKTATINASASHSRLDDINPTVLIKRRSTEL
T1 sequence (Q63921 whole entry): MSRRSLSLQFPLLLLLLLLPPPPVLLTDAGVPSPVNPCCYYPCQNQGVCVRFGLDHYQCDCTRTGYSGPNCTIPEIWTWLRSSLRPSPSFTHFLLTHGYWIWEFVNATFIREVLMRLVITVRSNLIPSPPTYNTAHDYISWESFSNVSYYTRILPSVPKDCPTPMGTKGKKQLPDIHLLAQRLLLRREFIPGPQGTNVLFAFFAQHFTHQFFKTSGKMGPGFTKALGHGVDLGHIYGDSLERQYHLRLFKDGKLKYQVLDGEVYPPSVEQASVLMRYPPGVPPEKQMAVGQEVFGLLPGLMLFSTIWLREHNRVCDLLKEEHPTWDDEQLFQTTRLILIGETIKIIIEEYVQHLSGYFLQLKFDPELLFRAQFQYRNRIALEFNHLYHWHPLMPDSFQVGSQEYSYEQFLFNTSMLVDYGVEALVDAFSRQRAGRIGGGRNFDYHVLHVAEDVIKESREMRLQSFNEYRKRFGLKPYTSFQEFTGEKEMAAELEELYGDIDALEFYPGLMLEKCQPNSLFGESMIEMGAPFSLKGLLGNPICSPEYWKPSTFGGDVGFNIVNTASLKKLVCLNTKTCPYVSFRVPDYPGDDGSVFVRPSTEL

Rattus norvegicus [3] = test: Compound was tested for inhibition of carrageenan induced edema when administered perorally; assay type: functional; details: po
Rattus norvegicus [4] = test: Compound was tested for inhibition of scald edema when administered perorally; assay type: functional; details: po
Rattus norvegicus [5] = test: Compound was tested for analgesia when administered perorally; assay type: functional; details: po
Rattus norvegicus [6] = test: Compound was tested for anti-pyrexia when administered perorally; assay type: functional; details: po
Rattus norvegicus [7] = test: Compound was tested for ulcerogenicity when administered perorally; assay type: functional
Rattus norvegicus [8] = test: Compound was tested for inhibition of contund edema when administered perorally; details: po
Rattus norvegicus [9] = test: Antiinflammatory activity was evaluated by carrageenan-induced rat paw edema assay after 3 hr at 100 mg/kg concentration administered perorally; assay type: functional; details: route oral
[10] = Compound was evaluated for lethal dose in mice when administarted intraperitoneally; assay type: toxicity, organism-based; details: mouse, in vivo, ip
Rattus norvegicus [11] = test: Antiinflammatory activity was evaluated by contund edema after 3 hr at 200 mg/kg concentration administered perorally; assay type: functional; details: route oral
Mus musculus [12] = test: Compound was evaluated for analgesia at 100 mg/kg when administered perorally (- = positive mice</=1); assay type: functional; details: route oral
Rattus norvegicus [13] = test: Antiinflammatory activity was evaluated by carrageenan-induced rat paw edema assay after 3 hr at 100 mg/kg concentration administered perorally (=p< 0.05); assay type: functional; details: route oral
Mus musculus [14] = test: Compound was evaluated for analgesia at 100 mg/kg when administered perorally (+ = positive mice >/=2); assay type: functional; details: route oral
[15] = Compound was tested for acute toxicity when administered intraperitoneally in mice; assay type: organism-based; details: mouse, in vivo, ip
Rattus norvegicus [16] = test: Compound was tested for inhibition of contund edema when administered perorally; assay type: functional; details: po
Rattus norvegicus [17] = test: Compound was tested for analgesia by Acetic acid writhing method when administered perorally; assay type: functional; details: po
Rattus norvegicus [18] = test: Compound was tested for anti-pyrexia (Yeast-induced pyrexia) when administered perorally; assay type: functional; details: po
Rattus norvegicus [19] = test: Antiinflammatory activity was evaluated by carrageenan-induced rat paw edema assay after 3 hr at 100 mg/kg concentration administered perorally (=p</=0.01); assay type: functional; details: route oral
Mus musculus [20] = test: Compound was evaluated for analgesic activity at 100 mg/kg when administered perorally (- = positive mice</= 1); assay type: functional; details: route oral
Rattus norvegicus [21] = test: Antiinflammatory activity was evaluated by contund edema assay after 3 hr at 200 mg/kg concentration administered perorally; assay type: functional; details: route oral
Mus musculus [22] = test: Compound was evaluated for analgesia at 100 mg/kg when administered perorally (+ = positive mice >/= 2); assay type: functional; details: route oral

SMILES	inhibition in vivo at 100 mg/kg (Rattus norvegicus [1])	inhibition in vivo at 100 mg/kg (Rattus norvegicus [9])	further results
CCc1ccc(-c2nc3ccccc3n2CC(=O)N2CCN(CCO)CC2)nc1	4%		
Cl.O=C(Cn1c(=O)sc2ccc(Cl)cc21)N1CCN(CCO)CC1 [TIARAMIDE HYDROCHLORIDE]	31%		LD50 (Mus musculus [2]): 203 mg/kg; IC50 (Cyclooxygenase): > 0.0001 M; ED40 (Rattus norvegicus [3]): 160 mg/kg; ED40 (Rattus norvegicus [4]): 200 mg/kg; ED50 (Rattus norvegicus [5]): 76 mg/kg; ED60 (Rattus norvegicus [6]): 100 mg/kg; UD50 (Rattus norvegicus [7]): 163 mg/kg; ED40 (Rattus norvegicus [8]): 200 mg/kg
Cc1ccc(-c2nc3cc(C)ccc3[nH]2)nc1		7%	
CCc1cccc(-c2nc3ccccc3[nH]2)n1		41%	LD50 [10]: > 300 mg/kg; inhibition in vivo at 200 mg/kg (Rattus norvegicus [11]): 85%
O=C(Cn1c(-c2ccccn2)nc2ccccc21)N1CCN(CCO)CC1	-4%		
Clc1ccc2nc(-c3ccccn3)[nH]c2c1		36%	
Cc1cccnc1-c1nc2ccccc2[nH]1		17%	
Cc1ccc(-c2nc3ccccc3n2CC(=O)N2CCCCC2)nc1	2%		
CCOC(=O)c1ccc(-c2nc3ccccc3[nH]2)nc1		-16%	
CCc1ccc(-c2nc3cc(O)ccc3[nH]2)nc1	25%		
Cc1ccc(-c2nc3ccccc3[nH]2)nc1C	37%		
COc1ccc2[nH]c(-c3ccccn3)nc2c1		34%	
Cc1ccc(-c2nc3ccccc3n2CC(=O)N2CCN(CCO)CC2)nc1	14%		
Cc1ccnc(-c2nc3ccccc3[nH]2)c1		-4%	
CCc1cccc(-c2nc3cc(OC)ccc3[nH]2)n1	52%		Activity (Mus musculus [12]): 1; LD50 [10]: > 300 mg/kg; inhibition in vivo at 200 mg/kg (Rattus norvegicus [11]): 87%
CCc1ccc(-c2nc3cc([N+](=O)[O-])ccc3[nH]2)nc1	-5%		
Cc1ccc(-c2nc3ccccc3[nH]2)nc1		19%	
CCc1ccc(-c2nc3ccccc3n2CC(=O)N2CCCC2)nc1	-5%		
Cc1ccc(-c2nc3ccccc3n2CCN(C)C)nc1	12%		
Cc1ccc2[nH]c(-c3ccc(C)c(C)n3)nc2c1	-19%		
Cc1ccc(-c2nc3cc(Cl)ccc3[nH]2)nc1	-5%		
OCc1ccc(-c2nc3ccccc3[nH]2)nc1		-10%	
CCc1ccc(-c2nc3cc(C)ccc3[nH]2)nc1			inhibition in vivo at 100 mg/kg (Rattus norvegicus [13]): 35%
CCCCC1C(=O)N(c2ccccc2)N(c2ccccc2)C1=O [PHENYLBUTAZONE]	43%		LD50 (Mus musculus [2]): 616 mg/kg; IC50 (Cyclooxygenase): 0.000015 M; ED40 (Rattus norvegicus [3]): 100 mg/kg; ED40 (Rattus norvegicus [4]): 180 mg/kg; ED50 (Rattus norvegicus [5]): 280 mg/kg; ED60 (Rattus norvegicus [6]): 44 mg/kg; UD50 (Rattus norvegicus [7]): 142 mg/kg; ED40 (Rattus norvegicus [8]): 200 mg/kg
CCc1ccc(-c2nc3ccccc3n2CC(=O)OC)nc1	9%		
CCc1ccc(-c2nc3cc(N)ccc3[nH]2)nc1	25%		
NC(=O)c1cccc(-c2nc3ccccc3[nH]2)n1		13%	
CCc1ccc(-c2nc3ccccc3n2Cc2ccccc2)nc1	-18%		

SMILES	inhibition in vivo at 100 mg/kg (Rattus norvegicus [1])	inhibition in vivo at 100 mg/kg (Rattus norvegicus [9])	further results
Cc1ccc2[nH]c(-c3cccc(Cl)n3)nc2c1		36%	
Cc1cccc(-c2nc3cc(Cl)ccc3[nH]2)n1	39%		Activity (Mus musculus [12]): 1; LD50 [10]: 1230 mg/kg; inhibition in vivo at 200 mg/kg (Rattus norvegicus [11]): 95%
CCc1ccc(-c2nc3ccccc3n2-c2ccccc2)nc1	12%		
COc1cccc(-c2nc3cc(C)ccc3[nH]2)n1	32%		
Cc1ccc2nc(-c3ccccn3)[nH]c2c1		35%	
Clc1cccc(-c2nc3ccccc3[nH]2)n1		30%	
CCc1ccc(-c2nc3ccccc3[nH]2)nc1		44%	Activity (Mus musculus [14]): 2; LD50 [10]: 1230 mg/kg; LD50 [15]: 1230 mg/kg; IC50 (Cyclooxygenase): 0.000076 M; ED40 (Rattus norvegicus [3]): 70 mg/kg; ED40 (Rattus norvegicus [16]): 142 mg/kg; ED40 (Rattus norvegicus [4]): 110 mg/kg; ED50 (Rattus norvegicus [17]): 140 mg/kg; ED60 (Rattus norvegicus [18]): 68 mg/kg; inhibition in vivo at 200 mg/kg (Rattus norvegicus [11]): 81%; UD50 (Rattus norvegicus [7]): 200 mg/kg
Oc1cccc(-c2nc3ccccc3[nH]2)n1		-7%	
CCc1ccc(-c2nc3cc(OC)ccc3[nH]2)nc1			Activity (Mus musculus [12]): 1; LD50 [10]: > 300 mg/kg; inhibition in vivo at 100 mg/kg (Rattus norvegicus [19]): 58%
Cc1cccc(-c2nc3ccccc3[nH]2)n1		44%	Activity (Mus musculus [20]): 1; LD50 [10]: 3250 mg/kg; inhibition in vivo at 200 mg/kg (Rattus norvegicus [21]): 59%
COC(=O)Cn1c(-c2ccccn2)nc2ccccc21	-17%		
CCCCc1ccc(-c2nc3ccccc3[nH]2)nc1		-16%	
CCc1ccc(-c2nc3cc(Cl)ccc3[nH]2)nc1	-2%		
OCc1cccc(-c2nc3ccccc3[nH]2)n1		-13%	
c1ccc(-c2nc3ccccc3[nH]2)nc1		22%	
Cc1cccc(-c2nc3cc(O)ccc3[nH]2)n1	6%		
Cc1ccc(-c2nc3ccccc3n2CC(=O)N2CCCC2)nc1	14%		
COc1ccc2[nH]c(-c3cccc(C)n3)nc2c1	40%		Activity (Mus musculus [12]): 1; LD50 [10]: 3730 mg/kg; inhibition in vivo at 200 mg/kg (Rattus norvegicus [11]): 39%
CCc1cccc(-c2nc3cc(C)ccc3[nH]2)n1	10%		
CCc1ccc(-c2nc3cc(NC(C)=O)ccc3[nH]2)nc1	5%		
Cc1ccc2[nH]c(-c3cccc(O)n3)nc2c1	-6%		
Cc1ccc(-c2nc3ccccc3n2CC(=O)N2CCN(C)CC2)nc1	11%		
CCc1ccc(-c2nc3ccccc3n2C)nc1	5%		
CCc1cccc(-c2nc3cc(Cl)ccc3[nH]2)n1	3%		
COc1cccc(-c2nc3ccccc3[nH]2)n1		47%	Activity (Mus musculus [22]): >=2; LD50 [10]: > 300 mg/kg
Cc1ccc2[nH]c(-c3cccc(C)n3)nc2c1	42%		Activity (Mus musculus [12]): 1; LD50 [10]: 812 mg/kg; inhibition in vivo at 200 mg/kg (Rattus norvegicus [11]): 67%
CCOC(=O)c1cccc(-c2nc3ccccc3[nH]2)n1		31%	
